Legend:
methemoglobin (metHb) [1] = conditions: in vivo; cited from earlier work
methemoglobin (metHb) [2] = system: methemoglobin (metHb); set-up: species or system rats; conditions: rat, in vivo

SMILES | maximum metHb levels (methemoglobin (metHb) [1]) | metHb levels achieved (can reach) (methemoglobin (metHb) [2])
CCCCCO[N+](=O)[O-] [amyl nitrate] | 3.45-7.0% | 
CC(C)CCON=O [Isoamyl Nitrite, 3-methylbutyl nitrite] |  | ≥ 20.0%
